Experimental findings from patent publication US8846704B2, “Thiopyrimidine-based compounds and uses thereof” (YM Biosciences Austraila Pty Ltd, priority 2007, dated 2014) are described below.

The target of one test is T1, BaF3 TELJAK3 cells (Homo sapiens, UniProt P52333).
T1 construct: fused on or other part: TEL (ETV6) N-terminal part, coding nucleotides 1-487, serves as the oligomerising partner; It is fused through a Sal I site to the JAK3 kinase domain and expressed from pTRE2 in BaF3 cells bearing pTET-off; P41212 (Transcription factor ETV6)
T1 sequence (P52333 1-1124): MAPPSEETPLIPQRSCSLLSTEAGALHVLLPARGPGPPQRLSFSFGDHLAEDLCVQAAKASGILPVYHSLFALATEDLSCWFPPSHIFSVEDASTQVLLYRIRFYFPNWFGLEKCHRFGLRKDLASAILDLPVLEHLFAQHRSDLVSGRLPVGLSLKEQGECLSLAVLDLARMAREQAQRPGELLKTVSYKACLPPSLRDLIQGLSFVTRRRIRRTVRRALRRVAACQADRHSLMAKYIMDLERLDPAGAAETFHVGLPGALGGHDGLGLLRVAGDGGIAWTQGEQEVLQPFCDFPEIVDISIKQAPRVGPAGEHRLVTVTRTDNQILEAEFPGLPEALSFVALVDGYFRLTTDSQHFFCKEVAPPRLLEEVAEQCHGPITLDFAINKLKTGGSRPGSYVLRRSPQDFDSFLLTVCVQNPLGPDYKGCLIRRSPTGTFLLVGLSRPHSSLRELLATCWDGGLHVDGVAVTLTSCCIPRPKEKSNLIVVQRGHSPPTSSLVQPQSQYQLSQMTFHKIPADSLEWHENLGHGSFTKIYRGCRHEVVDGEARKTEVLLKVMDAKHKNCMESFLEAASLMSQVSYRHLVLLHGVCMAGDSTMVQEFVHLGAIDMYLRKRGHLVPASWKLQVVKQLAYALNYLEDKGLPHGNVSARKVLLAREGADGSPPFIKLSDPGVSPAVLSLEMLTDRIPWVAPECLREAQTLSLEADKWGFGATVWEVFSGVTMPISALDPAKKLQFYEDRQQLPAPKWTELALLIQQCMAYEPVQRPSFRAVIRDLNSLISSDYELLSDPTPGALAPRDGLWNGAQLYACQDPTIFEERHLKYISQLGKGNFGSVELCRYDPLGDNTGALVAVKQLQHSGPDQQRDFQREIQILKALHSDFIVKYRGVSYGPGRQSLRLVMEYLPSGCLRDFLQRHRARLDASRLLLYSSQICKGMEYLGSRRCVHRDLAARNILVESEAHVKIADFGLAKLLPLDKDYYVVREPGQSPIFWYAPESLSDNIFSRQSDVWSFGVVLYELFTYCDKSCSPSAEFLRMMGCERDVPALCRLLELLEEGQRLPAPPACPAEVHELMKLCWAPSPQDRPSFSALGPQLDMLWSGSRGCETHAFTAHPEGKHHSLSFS
Nature of the test: Cellular screening, BaF3 TEL:JAK3 cells, Alamar Blue. As to conditions: 40 hr, read-out: BafT_J3 IC50_nM. The test is classed as cell-based. The procedure:
For screening purposes, compounds were diluted in 96 well plates at a concentration of 20 μM. Plates were warmed at 37° C. for 30 minutes before the assay was performed.
The coding region encompassing nucleotides 1-487 of TEL was amplified by PCR using the oligonucleotides STEL (5′-GGAGGATCCTGATCTCTCTCGCTGTGAGAC-3′) [SEQ ID NO 14] and 3TEL (5′-AGGC GTCGACTTCTTCTTCATGGTTCTG-3′) [SEQ ID NO 15] and U937 mRNA as a template. A […] restriction site was incorporated into the STEL primer, and a Sal I restriction site was incorporated into the 3TEL primer. The regions encompassing the kinase domain of JAK2 (nucleotides 2994-3914; JAK2F 5′-ACGC GTCGACGGTGCCTTTGAAGACCGGGAT-3′ [SEQ ID NO 16]; JAK2R 5′-ATAGTTTAGCGGCCGCTCAGAATGAAGGTCATTT-3′) [SEQ ID NO 17] and JAK3 (nucleotides 2520-3469; JAK3F 5′-GAAGTCGACTATGCCTGCCAAGACCCCACGATCTT-3′) [SEQ ID NO 18] were generated by PCR using Taq DNA polymerase (Gibco/BRL) and […] as a template. A Sal I restriction site was incorporated into the forward primer of JAK2 and JAK3, a Not I site was incorporated into the JAK2 reverse primer and a Xba I site was added to the reverse primer of JAK3.
The TEL/Jak3 fusion was prepared by ligation of the JAK3 Sal I/Not I cleaved kinase domain PCR product with the BamH I/Sal I restriction digested TEL product, followed by ligation of the ligation product into the BamH I/Not I digested pTRE2, to give the TEL/Jak3 fusion plasmid pTELJAK3.
The growth factor dependant myelomonocytic cell line BaF3 bearing the pTET-off plasmid (Clontech) was transfected with either pTELJAK2 or pTELJAK3, and the transfected cells were selected for growth-factor independent cell growth. The BaF3 wild-type cells were cultured in DMEM containing 10% FCS, 10% WEHI 3B conditioned medium. The BaF3 TELJAK cells ([…]) were cultured in DMEM 10% Tet-System Approved FBS (without WEHI 3B conditioned medium).
Cell suspensions were prepared by harvesting cells from culture (the cells used in this test were in late log phase growth with high viability.) Cells were diluted in the appropriate growth medium, as described above, to 1.1× final concentration (from 50,000 cell/mL to 200,000 cell/mL, depending on cell line).
Compounds to be tested were added (10 μL, 10× final concentration) to a flat bottomed 96-well plate. The cellular suspension (90 μL per well) was then added, and the plate incubated for 40 hr at 37° C., 5% CO2. Alamar Blue 10 μL per well was added and the plates returned to the incubator for a further 4-6 hours. The plates were then read at 544 nm.

For the next test, the target named is T2, BTK(h) (Homo sapiens, UniProt Q06187).
T2 construct: purchased Upstate Biotechnology (Dundee, UK), KinaseProfiler service
T2 sequence (Q06187 whole entry): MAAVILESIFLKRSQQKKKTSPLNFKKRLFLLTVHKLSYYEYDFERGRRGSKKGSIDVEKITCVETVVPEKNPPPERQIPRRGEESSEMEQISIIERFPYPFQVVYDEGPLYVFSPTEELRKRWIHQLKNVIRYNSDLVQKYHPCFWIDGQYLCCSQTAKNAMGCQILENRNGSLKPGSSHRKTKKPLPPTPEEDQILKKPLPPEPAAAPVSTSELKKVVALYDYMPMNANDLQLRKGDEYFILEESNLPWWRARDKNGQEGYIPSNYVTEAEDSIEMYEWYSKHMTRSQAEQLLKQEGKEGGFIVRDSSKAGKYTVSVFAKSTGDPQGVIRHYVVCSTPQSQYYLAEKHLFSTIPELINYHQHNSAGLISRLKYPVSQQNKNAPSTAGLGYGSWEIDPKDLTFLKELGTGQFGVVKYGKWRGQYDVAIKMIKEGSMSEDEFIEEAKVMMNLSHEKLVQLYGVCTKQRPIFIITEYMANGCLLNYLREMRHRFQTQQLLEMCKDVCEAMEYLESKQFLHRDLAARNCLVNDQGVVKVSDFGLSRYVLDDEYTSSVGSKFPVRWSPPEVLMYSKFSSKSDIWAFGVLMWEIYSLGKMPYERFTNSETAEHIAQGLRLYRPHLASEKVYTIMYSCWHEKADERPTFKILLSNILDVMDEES
Nature of the test: Upstate KinaseProfiler enzyme assay, BTK. The test is classed as biochemical. As to conditions: 500 nM compound; read-out: Percent inhibition at 500 nM BTK(h). The procedure: (§1) Further enzyme assays were conducted at Upstate Biotechnology (Dundee, UK) in the KinaseProfiler™ Assay system.
(§2) The general protocol is as follows. All kinases are pre-diluted to a 10× working concentration prior to addition into the assay. The composition of the dilution buffer for the kinases is 20 mM MOPS pH 7.0, 1 mM EDTA, 0.1% β-mercaptoethanol, 0.01% Brij-35, 5% glycerol, 1 mg/ml BSA. All substrates are dissolved and diluted to working stocks in de-ionised water.

In another test the target is T3, KDR(h) (Homo sapiens, UniProt P35968).
T3 construct: purchased Upstate Biotechnology (Dundee, UK), KinaseProfiler service
T3 sequence (P35968 20-1356): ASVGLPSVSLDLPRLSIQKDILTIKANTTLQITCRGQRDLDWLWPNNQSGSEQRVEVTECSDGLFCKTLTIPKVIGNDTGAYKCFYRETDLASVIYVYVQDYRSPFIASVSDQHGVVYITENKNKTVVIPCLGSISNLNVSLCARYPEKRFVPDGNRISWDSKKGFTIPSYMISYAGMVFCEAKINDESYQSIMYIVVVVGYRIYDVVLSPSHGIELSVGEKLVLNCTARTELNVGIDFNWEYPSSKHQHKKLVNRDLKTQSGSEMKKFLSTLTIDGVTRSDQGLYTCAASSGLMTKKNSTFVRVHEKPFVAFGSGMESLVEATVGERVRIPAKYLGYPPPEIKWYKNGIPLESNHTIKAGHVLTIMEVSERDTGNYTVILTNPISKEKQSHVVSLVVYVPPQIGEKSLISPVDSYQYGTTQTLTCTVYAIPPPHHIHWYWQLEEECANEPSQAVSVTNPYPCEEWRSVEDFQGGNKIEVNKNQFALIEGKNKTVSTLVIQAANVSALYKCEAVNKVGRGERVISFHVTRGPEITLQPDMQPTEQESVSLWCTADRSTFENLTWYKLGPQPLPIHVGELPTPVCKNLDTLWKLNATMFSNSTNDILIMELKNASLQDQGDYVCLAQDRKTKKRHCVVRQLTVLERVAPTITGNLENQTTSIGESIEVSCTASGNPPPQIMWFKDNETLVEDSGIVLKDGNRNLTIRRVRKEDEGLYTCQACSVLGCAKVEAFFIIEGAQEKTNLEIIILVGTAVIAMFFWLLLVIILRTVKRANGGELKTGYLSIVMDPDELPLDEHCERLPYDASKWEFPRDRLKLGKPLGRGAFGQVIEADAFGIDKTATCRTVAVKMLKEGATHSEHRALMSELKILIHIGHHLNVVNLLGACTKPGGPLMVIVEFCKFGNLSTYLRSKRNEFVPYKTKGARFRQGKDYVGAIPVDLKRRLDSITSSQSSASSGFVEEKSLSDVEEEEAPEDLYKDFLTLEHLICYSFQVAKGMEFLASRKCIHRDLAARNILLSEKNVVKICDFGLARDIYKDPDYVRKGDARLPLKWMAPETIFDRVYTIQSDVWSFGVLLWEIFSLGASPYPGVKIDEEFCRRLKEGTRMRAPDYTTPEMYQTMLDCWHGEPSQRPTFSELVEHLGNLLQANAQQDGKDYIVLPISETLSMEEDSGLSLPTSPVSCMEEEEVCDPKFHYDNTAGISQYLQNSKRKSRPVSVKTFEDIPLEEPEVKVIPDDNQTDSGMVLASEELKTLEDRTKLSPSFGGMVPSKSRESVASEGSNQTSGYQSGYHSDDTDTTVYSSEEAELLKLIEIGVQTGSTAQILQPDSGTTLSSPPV
Nature of the test: Upstate KinaseProfiler enzyme assay, KDR. It counts as biochemical. As to conditions: 500 nM compound; read-out: Percent inhibition at 500 nM KDR(h). Here is the method: as §1, §2

A value given as a limit tells only on which side of the number the result lay.

In the case of `C=CC(=O)Nc1cccc(Sc2ccnc(Nc3ccc(N4CCOCC4)cc3)n2)c1` [Compound 23, N-(3-(2-(4-morpholinophenylamino)pyrimidin-4-ylthio)phenyl)acrylamide], the GI50 at BaF3 TELJAK3 cells is less than 1 µM. In addition, on BTK(h), the inhibition (in general, the percentage by which the read-out fell short of the control) at 0.5 µM came to 84%.

Consider `C=CC(=O)Nc1ccc(Sc2ccnc(Nc3ccc(N4CCOCC4)cc3)n2)cc1` [Compound 25, N-(4-(2-(4-morpholinophenylamino)pyrimidin-4-ylthio)phenyl)acrylamide], for which the GI50 at BaF3 TELJAK3 cells is less than 1 µM. The inhibition at 0.5 µM at BTK(h) is 83%.

Regarding `C=CC(=O)Nc1cccc(Nc2nccc(Sc3ccc(OC)cc3)n2)c1` [Compound 42, N-(3-(4-(4-methoxyphenylthio)pyrimidin-2-ylao)phenyl)acrylamide], the GI50 at BaF3 TELJAK3 cells was less than 5 µM. Further, the inhibition at 0.5 µM on BTK(h) and on KDR(h) was 100% each time.

`C=CC(=O)Nc1ccc(Sc2ccnc(Nc3cccc(N4CCOCC4)c3)n2)cc1` [Compound 77, N-(4-(2-(3-morpholinophenylao)pyrimidin-4-ylthio)phenyl)acrylamide]: the GI50 on BaF3 TELJAK3 cells is less than 1 µM. Further, the inhibition at 0.5 µM at BTK(h) and at KDR(h) was 100% throughout.

On to `C=CC(=O)Nc1cccc(Sc2ccnc(Nc3cccc(N4CCOCC4)c3)n2)c1` [Compound 110, N-(3-(2-(3-morpholinophenylao)pyrimidin-4-ylthio)phenyl)acrylamide], for which the GI50 at BaF3 TELJAK3 cells is less than 1 µM. Moreover, the inhibition at 0.5 µM at BTK(h) and on KDR(h) was 100% throughout.

As for `C=CC(=O)NCc1ccc(Sc2ccnc(Nc3ccc(N4CCOCC4)cc3)n2)cc1` [Compound 111, N-(4-(2-(4-morpholinophenylamino)pyrimidin-4-ylthio)benzyl)acrylamide], the GI50 at BaF3 TELJAK3 cells is less than 1 µM. Also, the inhibition at 0.5 µM on BTK(h) and on KDR(h) was 100% throughout.

For `C=CC(=O)NCc1cccc(Sc2ccnc(Nc3ccc(N4CCOCC4)cc3)n2)c1` [Compound 112, N-(3-(2-(4-morpholinophenylamino)pyrimidin-4-ylthio)benzyl)acrylamide], the GI50 on BaF3 TELJAK3 cells was less than 20 µM. Besides, the inhibition at 0.5 µM on BTK(h) and at KDR(h) was 100% each time.

Regarding `C=CC(=O)Nc1ccc(Sc2ccnc(Nc3ccc(N4CCOCC4)cc3)n2)cc1OC` [Compound 123, N-(2-methoxy-4-(2-(4-morpholinophenylao)pyrimidin-4-ylthio)phenyl)acrylamide], the GI50 on BaF3 TELJAK3 cells is less than 5 µM. For the same molecule, the inhibition at 0.5 µM at BTK(h) and on KDR(h) was 100% in each case.

For the molecule `Cc1cc(N)ccc1Sc1nc(Nc2ccc(N3CCOCC3)cc2)ncc1C` [Compound 162, 4-(4-ao-2-methylphenylthio)-5-methyl-N-(4-morpholinophenyl)pyrimidin-2-ae], the GI50 on BaF3 TELJAK3 cells was less than 5 µM. For the same molecule, on KDR(h), the inhibition at 0.5 µM was found to be 95%.

Regarding `C=CC(=O)Nc1ccc(Sc2nc(Nc3ccc(N4CCOCC4)cc3)ncc2C)c(C)c1` [Compound 163, N-(3-methyl-4-(5-methyl-2-(4-morpholinophenylao)pyrimidin-4-ylthio)phenyl)acrylamide], the GI50 on BaF3 TELJAK3 cells is less than 1 µM. For the same molecule, the inhibition at 0.5 µM on KDR(h) is 97%.

As for `Cc1cnc(Nc2ccc(N3CCOCC3)cc2)nc1Sc1c(C)cc(N)cc1C` [Compound 165, 4-(4-ao-2,6-dimethylphenylthio)-5-methyl-N-(4-morpholinophenyl)pyrimidin-2-ae], the GI50 at BaF3 TELJAK3 cells is greater than 20 µM. Further, at KDR(h), the inhibition at 0.5 µM is 86%.

For the molecule `CC#CC(=O)Nc1ccc(Sc2ccnc(Nc3cccc(N4CCOCC4)c3)n2)cc1` [Compound 233, N-(4-(2-(3-morpholinophenylao)pyrimidin-4-ylthio)phenyl)but-2-ynamide], the GI50 at BaF3 TELJAK3 cells was less than 1 µM. For the same molecule, the inhibition at 0.5 µM on KDR(h) was determined as 98%.

On to `C=CC(=O)Nc1ccc(Sc2nc(Nc3cccc(OC)c3)ncc2C)cc1` [Compound 235, N-(4-(2-(3-methoxyphenylao)-5-methylpyrimidin-4-ylthio)phenyl)acrylamide], for which the GI50 on BaF3 TELJAK3 cells is less than 1 µM. At KDR(h), the inhibition at 0.5 µM turned out to be 96%.

As for `C=CC(=O)Nc1ccc(Sc2nc(Nc3cccc(N4CCOCC4)c3)ncc2C)cc1` [Compound 237, N-(4-(5-methyl-2-(3-morpholinophenylao)pyrimidin-4-ylthio)phenyl)acrylamide], the GI50 at BaF3 TELJAK3 cells is less than 1 µM. The inhibition at 0.5 µM at KDR(h) was 97%.

In the case of `C=CC(=O)Nc1ccc(Sc2ccnc(Nc3ccc(N4CCN(C)CC4)cc3)n2)cc1` [Compound 238, N-(4-(2-(4-(4-methylpiperazin-1-yl)phenylao)pyrimidin-4-ylthio)phenyl)acrylamide], the GI50 at BaF3 TELJAK3 cells was less than 1 µM. Also, at KDR(h), the inhibition at 0.5 µM was determined as 95%.

In the case of `Cc1cnc(Nc2ccc(N3CCOCC3)cc2)nc1Sc1ccc(N2C(=O)C=C(Br)C2=O)cc1` [Compound 382, 3-bromo-1-(4-(5-methyl-2-(4-morpholinophenylao)pyrimidin-4-ylthio)phenyl)-1H-pyrrole-2,5-dione], the GI50 at BaF3 TELJAK3 cells is less than 20 µM.

As for `CCOC(=O)/C=C/C(=O)Nc1ccc(Sc2nc(Nc3ccc(N4CCOCC4)cc3)ncc2C)cc1` [Compound 385, (E)-ethyl 4-(4-(5-methyl-2-(4-morpholinophenylao)pyrimidin-4-ylthio)phenylao)-4-oxobut-2-enoate], the GI50 at BaF3 TELJAK3 cells is less than 1 µM.

On to `CNC(=O)/C=C\C(=O)Nc1ccc(Sc2nc(Nc3ccc(N4CCOCC4)cc3)ncc2C)cc1` [Compound 389, N1-methyl-N4-(4-(5-methyl-2-(4-morpholinophenylao)pyrimidin-4-ylthio)phenyl)maleamide], for which the GI50 at BaF3 TELJAK3 cells is less than 1 µM.
